Patent publication US9107411B2, “Indolecarboxamides and benzimidazolecarboxamides as insecticides and acaricides” (BAYER INTELLECTUAL PROPERTY GMBH, priority 2011, dated 2015)

Tests used:
Boophilus microplus = Boophilus microplus test (BOOPMI injection); format: in vivo; conditions: application rate 20 μg/animal; injected into the abdomen; after 7 days
Protocol: Boophilus microplus Test (BOOPMI Injection) Solvent: dimethyl sulphoxide To prepare an appropriate active ingredient formulation, 10 mg of active ingredient are mixed with 0.5 ml of solvent and the concentrate is diluted with solvent to the desired concentration. The active ingredient solution is injected into the abdomen (Boophilus microplus), and the animals are transferred into dishes and stored in a climate-controlled room. After 7 days, the efficacy in % is determined. The activity is assessed by laying of fertile eggs. 100% means that none of the ticks has laid any fertile eggs.

Ctenocephalides felis = Ctenocephalides felis oral (CTECFE); format: in vivo; conditions: application rate 100 ppm in citrated cattle blood; after 2 days
Protocol: Ctenocephalides felis Oral ([…]) Solvent: 1 part by weight of dimethyl sulphoxide For the purpose of preparing an appropriate active ingredient formulation, 10 mg of active ingredient are mixed with 0.5 ml of dimethyl sulphoxide. A portion of the concentrate is diluted with citrated cattle blood, and the desired concentration is prepared. About 20 unfed adult fleas (Ctenocephalides felis) are placed into a chamber which is closed at the top and bottom with gauze. A metal cylinder whose bottom end is closed with Parafilm is placed onto the chamber. The cylinder contains the blood/active ingredient formulation, which can be imbibed by the fleas through the Parafilm membrane. After 2 days, the kill in % is determined 100% means that all of the fleas have been killed; 0% means that none of the fleas have been killed.

Lucilia cuprina larvae = assay: Lucilia cuprina test (LUCICU); format: in vivo; conditions: application rate 100 ppm; treated horse meat; after 2 days
Protocol: (§1) Lucilia cuprina Test (LUCICU) Solvent: dimethyl sulphoxide To prepare an appropriate active ingredient formulation, 10 mg of active ingredient are mixed with 0.5 ml of dimethyl sulphoxide and the concentrate is diluted with water to the desired concentration. Vessels containing horse meat treated with the active ingredient formulation of the desired concentration are populated with about 20 Lucilia cuprina larvae. After 2 days, the kill in % is determined. 100% means that all of the larvae have been killed; 0% means that none of the larvae have been killed.

adult Musca domestica = assay: Musca domestica test (MUSCDO); format: in vivo; conditions: application rate 100 ppm; treated sponge; after 2 days
Protocol: as §1, with “Musca domestica” for “Lucilia cuprina”, “(MUSCDO)” for “(LUCICU)”, “a sponge” for “horse meat”, “adult Musca domestica.” for “about 20 Lucilia cuprina larvae.”, “determined” for “determined.”, “flies” for “larvae”

Phaedon cochleariae = assay: Phaedon test (PHAECO spray treatment); format: in vivo; conditions: Chinese cabbage leaf discs, after 7 days
Method in brief: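 Chinese cabbage leaf discs were sprayed with compound in acetone/DMF with emulsifier, diluted in water to the test concentration. After drying, discs were infested with mustard beetle larvae. Efficacy in % was scored after 7 days, where 100% means all larvae were killed and 0% means none.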

Spodoptera frugiperda = Spodoptera frugiperda test (SPODFR spray treatment); format: in vivo; conditions: maize leaf discs, after 7 days
Method in brief: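 Maize leaf discs sprayed with active ingredient formulated in acetone/dimethylformamide with emulsifier, diluted in emulsifier-containing water to the desired concentration. After drying, discs were populated with armyworm caterpillars. Efficacy (%) scored after 7 days: 100% all caterpillars killed, 0% none killed.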

Tetranychus urticae = assay: Tetranychus test, OP-resistant (TETRUR spray treatment); format: in vivo; conditions: bean leaf discs, after 6 days
Method in brief: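 Bean leaf discs infested with all stages of OP-resistant T. urticae sprayed with compound formulated in acetone/DMF plus alkylaryl polyglycol ether emulsifier, diluted in water. Efficacy (% mites killed) scored after 6 days.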

logP (HPLC-MS) = format: physicochemical; conditions: HPLC, reversed-phase column (C18), 43° C.
[1] = acidic range pH 2.7, acetonitrile (0.1% formic acid)/water gradient, calibration with unbranched alkan-2-ones
[2] = acidic range pH 2.7, EEC directive 79/831 Annex V.A8, two values = both regioisomers (G = N)

| SMILES | log p (logP (HPLC-MS); [1]) | log p (logP (HPLC-MS); [2]) | efficacy (laying of fertile eggs) (Boophilus microplus) [%] | efficacy (kill in %) (Ctenocephalides felis) [%] | efficacy (kill in %) (Lucilia cuprina larvae) [%] | efficacy (kill in %) (adult Musca domestica) [%] | efficacy in % (Phaedon cochleariae; application rate 100 g/ha) [%] | efficacy in % (Spodoptera frugiperda; application rate 100 g/ha) [%] | efficacy in % (Tetranychus urticae; application rate 100 g/ha) [%] | efficacy in % (Phaedon cochleariae; application rate 500 g/ha) [%] | efficacy in % (Spodoptera frugiperda; application rate 500 g/ha) [%] | efficacy in % (Tetranychus urticae; application rate 500 g/ha) [%] |
| --- | --- | --- | --- | --- | --- | --- | --- | --- | --- | --- | --- | --- |
| CCn1c(C(=O)NC(c2cc(Cl)cc(Cl)c2)C(F)(F)F)cc2cc(C(=O)NC3CC3)c(Cl)cc21 (stereo not drawn) [Compound 13] | 4.27 |  | 100 | 100 | 100 | 100 |  |  |  | 100 | 100 | 80 |
| CCn1c(C(=O)NC(c2cccc(C(F)(F)F)c2)C(F)(F)F)cc2cc(C(=O)NC(C)(C)C#N)c(Cl)cc21 (stereo not drawn) [Compound 15] | 3.89 |  | 100 | 100 | 100 | 100 | 100 | 100 |  |  |  |  |
| CCn1c(C(=O)NC(c2ccc(F)c(C(F)(F)F)c2)C(F)(F)F)cc2cc(C(=O)NC3(C#N)CC3)c(Cl)cc21 (stereo not drawn) [Compound 16] | 3.88 |  | 100 | 100 | 100 | 100 | 100 | 100 | 100 |  |  |  |

Now from value to molecule, other results behind:

| log p (logP (HPLC-MS); [1]) | log p (logP (HPLC-MS); [2]) | SMILES | efficacy (laying of fertile eggs) (Boophilus microplus) [%] | efficacy (kill in %) (Ctenocephalides felis) [%] | efficacy (kill in %) (Lucilia cuprina larvae) [%] | efficacy (kill in %) (adult Musca domestica) [%] | efficacy in % (Phaedon cochleariae; application rate 100 g/ha) [%] | efficacy in % (Spodoptera frugiperda; application rate 100 g/ha) [%] | efficacy in % (Tetranychus urticae; application rate 100 g/ha) [%] | efficacy in % (Phaedon cochleariae; application rate 500 g/ha) [%] | efficacy in % (Spodoptera frugiperda; application rate 500 g/ha) [%] | efficacy in % (Tetranychus urticae; application rate 500 g/ha) [%] |
| --- | --- | --- | --- | --- | --- | --- | --- | --- | --- | --- | --- | --- |
| 3.76 |  | CCn1c(C(=O)NC(c2ccc(F)c(C(F)(F)F)c2)C(F)(F)F)cc2cc(C(=O)NC3CC3)c(C)cc21 (stereo not drawn) [Compound 188] | 100 | 100 | 100 | 100 | 100 | 100 | 100 |  |  |  |
|  | 3.74 | C=CCn1c(C(=O)NC(c2cccc(C(F)(F)F)c2)C(F)(F)F)cc2cc(C(=O)NC3(C#N)CC3)c(Cl)cc21 (stereo not drawn) [Compound 283] | 100 | 100 | 100 | 90 | 100 | 100 | 100 |  |  |  |
|  | 4.03 | CCCn1c(C(=O)NC(c2cccc(C(F)(F)F)c2)C(F)(F)F)cc2cc(C(=O)NC3(C#N)CC3)c(Cl)cc21 (stereo not drawn) [Compound 288] | 100 | 100 | 100 | 100 | 100 | 100 | 100 |  |  |  |
| 3.52 |  | Cn1c(C(=O)NC(c2ccc(F)c(C(F)(F)F)c2)C(F)(F)F)cc2cc(C(=O)NC3(C#N)CC3)c(Cl)cc21 (stereo not drawn) [Compound 50] | 100 | 100 | 100 | 100 | 100 | 100 | 100 |  |  |  |
| 3.65 |  | C#CCn1c(C(=O)NC(c2ccc(F)c(C(F)(F)F)c2)C(F)(F)F)cc2cc(C(=O)NC3(C#N)CC3)c(Cl)cc21 (stereo not drawn) [Compound 61] | 100 | 100 | 100 | 100 | 100 | 100 | 100 |  |  |  |
